Experiments:
[1] = test system: Human immunodeficiency virus 1; test: Inhibition of HIV1 protease at 50 nM
Plasmepsin II = Plasmepsin II (Plasmodium falciparum, UniProt P46925); test: Inhibition of Plasmodium falciparum plasmepsin-2
[2] = Selectivity for Plasmodium falciparum plasmepsin-2 over human cathepsin D
Plasmodium falciparum = test: Antimicrobial activity against Plasmodium falciparum in erythrocytes; format: functional, organism-based

Chain of Plasmepsin II (P46925 whole entry): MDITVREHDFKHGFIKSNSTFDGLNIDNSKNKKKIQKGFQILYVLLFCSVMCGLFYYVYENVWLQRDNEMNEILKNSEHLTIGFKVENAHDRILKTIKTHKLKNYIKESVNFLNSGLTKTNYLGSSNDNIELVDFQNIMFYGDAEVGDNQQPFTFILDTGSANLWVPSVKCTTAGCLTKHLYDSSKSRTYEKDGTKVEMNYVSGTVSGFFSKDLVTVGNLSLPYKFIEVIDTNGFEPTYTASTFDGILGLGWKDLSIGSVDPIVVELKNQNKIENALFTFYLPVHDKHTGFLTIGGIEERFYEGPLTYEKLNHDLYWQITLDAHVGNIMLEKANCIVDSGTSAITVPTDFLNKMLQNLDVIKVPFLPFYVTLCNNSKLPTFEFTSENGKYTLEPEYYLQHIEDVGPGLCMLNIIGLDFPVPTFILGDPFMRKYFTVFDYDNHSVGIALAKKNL

| Compound | inhibition [1] | Ki (Plasmepsin II) | Ratio [2] | EC50 (Plasmodium falciparum) |
| --- | --- | --- | --- | --- |
| CSC[C@H](NC(=O)Cc1cccc(O)c1)C(=O)N[C@@H](Cc1ccccc1)[C@H](O)C(=O)N1CSC(C)(C)[C@H]1C(=O)N[C@H]1c2ccccc2C[C@H]1O | 84% | 4 nM |  |  |
| CSC[C@H](NC(=O)COc1cccc2cnccc12)C(=O)N[C@@H](Cc1ccccc1)[C@H](O)C(=O)N1CSC[C@H]1C(=O)NC(C)(C)C |  | 1000 nM |  |  |
| CSC[C@H](NC(=O)COc1cccc2cnccc12)C(=O)N[C@@H](Cc1ccccc1)[C@H](O)C(=O)N1CSC(C)(C)[C@H]1C(=O)NC(C)(C)C |  | 36 nM | 50 |  |
| CSC[C@H](NC(=O)Cc1ccccc1)C(=O)N[C@@H](Cc1ccccc1)[C@H](O)C(=O)N1CSC(C)(C)[C@H]1C(=O)N[C@H]1c2ccccc2C[C@H]1O | 85% | ≤ 0.1 nM |  |  |
| Cc1cccc(C)c1OCC(=O)N[C@@H](Cc1ccccc1)[C@H](O)C(=O)N1CSC(C)(C)[C@H]1C(=O)N[C@H]1c2ccccc2C[C@H]1O |  | 0.5 nM |  | 6800 nM |
| CSC[C@H](NC(=O)OC1CCCCC1)C(=O)N[C@@H](Cc1ccccc1)[C@H](O)C(=O)N1CSC(C)(C)[C@H]1C(=O)N[C@H]1c2ccccc2C[C@H]1O | 56% | 5 nM |  |  |
| CSC[C@H](NC(=O)c1cc(=O)c2ccccc2o1)C(=O)N[C@@H](Cc1ccccc1)[C@H](O)C(=O)N1CSC(C)(C)[C@H]1C(=O)N[C@H]1c2ccccc2C[C@H]1O | 99% | 9 nM |  |  |
| CSC[C@H](NC(=O)Cc1cccc(N)c1)C(=O)N[C@@H](Cc1ccccc1)[C@H](O)C(=O)N1CSC(C)(C)[C@H]1C(=O)N[C@H]1c2ccccc2C[C@H]1O | 76% | 12 nM |  |  |
| COc1ccccc1CC(=O)N[C@@H](CSC)C(=O)N[C@@H](Cc1ccccc1)[C@H](O)C(=O)N1CSC(C)(C)[C@H]1C(=O)N[C@H]1c2ccccc2C[C@H]1O | 81% | 9 nM |  |  |
| CSC[C@H](NC(=O)Cc1ccccc1C)C(=O)N[C@@H](Cc1ccccc1)[C@H](O)C(=O)N1CSC(C)(C)[C@H]1C(=O)N[C@H]1c2ccccc2C[C@H]1O | 83% | 0.2 nM |  | 4700 nM |
| CSC[C@H](NC(=O)Cc1ccccc1O)C(=O)N[C@@H](Cc1ccccc1)[C@H](O)C(=O)N1CSC(C)(C)[C@H]1C(=O)N[C@H]1c2ccccc2C[C@H]1O | 86% | 16 nM |  |  |
| CSC[C@H](NC(=O)Cc1ccc(O)cc1)C(=O)N[C@@H](Cc1ccccc1)[C@H](O)C(=O)N1CSC(C)(C)[C@H]1C(=O)N[C@H]1c2ccccc2C[C@H]1O | 88% | ≤ 0.1 nM |  |  |
| COc1cccc(CC(=O)N[C@@H](CSC)C(=O)N[C@@H](Cc2ccccc2)[C@H](O)C(=O)N2CSC(C)(C)[C@H]2C(=O)N[C@H]2c3ccccc3C[C@H]2O)c1 | 88% | 17 nM |  |  |
| CSC[C@H](NC(=O)COc1cccc(Nc2ccccc2)c1)C(=O)N[C@@H](Cc1ccccc1)[C@H](O)C(=O)N1CSC(C)(C)[C@H]1C(=O)N[C@H]1c2ccccc2C[C@H]1O | 98% | 15 nM |  |  |
| CSC[C@H](NC(=O)Cc1ccc(C)cc1)C(=O)N[C@@H](Cc1ccccc1)[C@H](O)C(=O)N1CSC(C)(C)[C@H]1C(=O)N[C@H]1c2ccccc2C[C@H]1O | 88% | 5 nM |  |  |
| CSC[C@H](NC(=O)COc1cccc2cnccc12)C(=O)N[C@@H](Cc1ccccc1)[C@H](O)C(=O)N1CSC(C)(C)[C@H]1C(=O)N[C@H]1c2ccccc2C[C@H]1O | 99% | 3 nM |  | 3100 nM |
| CSC[C@H](NC(=O)Cc1ccc(N)cc1)C(=O)N[C@@H](Cc1ccccc1)[C@H](O)C(=O)N1CSC(C)(C)[C@H]1C(=O)N[C@H]1c2ccccc2C[C@H]1O | 68% | ≤ 0.1 nM |  |  |
| COc1ccc(CC(=O)N[C@@H](CSC)C(=O)N[C@@H](Cc2ccccc2)[C@H](O)C(=O)N2CSC(C)(C)[C@H]2C(=O)N[C@H]2c3ccccc3C[C@H]2O)cc1 | 91% | 4 nM |  |  |
| CSC[C@H](NC(=O)Cc1ccccc1N)C(=O)N[C@@H](Cc1ccccc1)[C@H](O)C(=O)N1CSC(C)(C)[C@H]1C(=O)N[C@H]1c2ccccc2C[C@H]1O | 86% | 4 nM |  |  |
| CSC[C@H](NC(=O)Cc1cccc(C)c1)C(=O)N[C@@H](Cc1ccccc1)[C@H](O)C(=O)N1CSC(C)(C)[C@H]1C(=O)N[C@H]1c2ccccc2C[C@H]1O | 87% | 18 nM |  |  |
